{
  "source": "BindingDB's records for doi:10.1021/acs.jmedchem.3c01371",
  "about": "(University of Santiago De Compostela, 2023)",
  "biological_target": "T1, Vitamin D3 receptor (Homo sapiens, UniProt P11473)",
  "T1 sequence (P11473 whole entry)": "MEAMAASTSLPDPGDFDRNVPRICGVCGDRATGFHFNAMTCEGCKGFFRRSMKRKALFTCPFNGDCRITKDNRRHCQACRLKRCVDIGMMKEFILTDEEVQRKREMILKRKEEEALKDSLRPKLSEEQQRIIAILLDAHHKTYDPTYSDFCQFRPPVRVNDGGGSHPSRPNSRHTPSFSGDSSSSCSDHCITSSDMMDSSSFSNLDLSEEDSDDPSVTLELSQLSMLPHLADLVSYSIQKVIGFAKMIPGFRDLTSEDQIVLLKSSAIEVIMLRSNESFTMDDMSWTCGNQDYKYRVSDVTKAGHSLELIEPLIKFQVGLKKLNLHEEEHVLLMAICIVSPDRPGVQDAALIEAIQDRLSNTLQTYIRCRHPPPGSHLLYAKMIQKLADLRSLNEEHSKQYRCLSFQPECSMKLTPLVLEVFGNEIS",
  "assay": "Binding affinity to full length human VDR by Competitive binding assay",
  "data": [
    {"smiles": "C=C1/C(=C\\C=C(/C)c2cccc(CCC#CCC(O)(C(F)(F)F)C(F)(F)F)c2)C[C@@H](O)C[C@@H]1O", "values": [
      {"measurement": "IC50", "value": 4.6, "unit": "nM"}
    ]}
  ]
}
